DBAASP
Converted amounts (≈) assume the structure as drawn.

Key:
Assay in all cases: ≥ marks a high value that may be exact or a test limit, other limits are often not marked, values filed in µg/mL are converted to µM
[1] = tested on: Acinetobacter baumannii ATCC 19606
[2] = tested on: Enterococcus faecalis ATCC 19433
[3] = tested on: Enterococcus faecalis ATCC BAA-2316
[4] = tested on: Enterococcus faecalis ATCC BAA-2365
[5] = tested on: Escherichia coli ATCC 25922
[6] = tested on: Escherichia coli ATCC BAA-2452
[7] = tested on: Klebsiella pneumoniae ATCC 13883
[8] = tested on: Pseudomonas aeruginosa ATCC 27853
[9] = tested on: Pseudomonas aeruginosa ATCC BAA-2114
[10] = tested on: Staphylococcus aureus ATCC 29213
[11] = tested on: Staphylococcus aureus ATCC 33591
[12] = tested on: Staphylococcus aureus ATCC 43300
[13] = tested on: Staphylococcus aureus ATCC BAA-41
[14] = tested on: Staphylococcus epidermidis ATCC 12228
[15] = tested on: Aspergillus flavus KCTC 9471
[16] = tested on: Aspergillus fumigatus KCTC 6145
Bacillus subtilis = tested on: Bacillus subtilis
Botrytis cinerea = tested on: Botrytis cinerea
[17] = tested on: Candida albicans KCTC 7270
[18] = tested on: Escherichia coli O157:H7 ATCC 43895
Escherichia coli = tested on: Escherichia coli
Fusarium verticillioides = tested on: Fusarium verticillioides
[19] = tested on: Listeria monocytogenes KCTC 3710
Proteus vulgaris = tested on: Proteus vulgaris
Pseudomonas aeruginosa = tested on: Pseudomonas aeruginosa
Saccharomyces cerevisiae = tested on: Saccharomyces cerevisiae
Salmonella typhimurium = tested on: Salmonella typhimurium
Staphylococcus aureus = tested on: Staphylococcus aureus
[20] = tested on: Staphylococcus epidermidis
Trichosporon beigelii = tested on: Trichosporon beigelii
Acinetobacter baumannii = tested on: Acinetobacter baumannii
[21] = tested on: Bacillus subtilis ATCC 6051
[22] = tested on: Candida albicans ATCC 90028
[23] = tested on: Cryptococcus neoformans ATCC 208821
[24] = tested on: Klebsiella pneumoniae ATCC 700603
[25] = tested on: Klebsiella pneumoniae ATCC BAA-2146
Klebsiella pneumoniae = tested on: Klebsiella pneumoniae
[26] = tested on: Candida albicans ATCC 10231
Candida krusei CBS 573 = tested on: Candida krusei CBS 573
[27] = tested on: Candida parapsilosis CBS 604
[28] = tested on: Saccharomyces cerevisiae SZMC 0644
[29] = tested on: Bacillus subtilis subsp. spizizenii
[30] = tested on: Enterococcus faecalis ATCC 29212
[31] = tested on: Pseudomonas aeruginosa PAO1
[32] = tested on: Staphylococcus aureus ATCC 6538P
[33] = tested on: Staphylococcus aureus WKZ-2

CC[C@H](C)[C@H](NC(=O)[C@H](CCCN=C(N)N)NC(=O)[C@H](CCC(=O)O)NC(=O)[C@@H](NC(=O)[C@@H](NC(=O)[C@H](CCCN=C(N)N)NC(=O)[C@H](CCCCN)NC(=O)[C@H](Cc1ccccc1)NC(=O)[C@H](CCC(=O)O)NC(=O)[C@H](CCCCN)NC(=O)CNC(=O)[C@@H](NC(=O)[C@@H](NC(=O)[C@@H]1CCCN1C(=O)[C@H](CO)NC(=O)[C@H](CC(C)C)NC(=O)[C@H](CCCCN)NC(=O)[C@H](CCCCN)NC(=O)[C@H](Cc1ccccc1)NC(=O)[C@H](CC(C)C)NC(=O)[C@H](CCCCN)NC(=O)[C@H](CCCCN)NC(=O)[C@H](Cc1ccccc1)NC(=O)[C@@H](N)CCCCN)C(C)C)[C@@H](C)CC)[C@@H](C)CC)C(C)C)C(=O)N[C@@H](CCCCN)C(=O)N[C@@H](CCCN=C(N)N)C(=O)N[C@@H](Cc1ccccc1)C(=O)N[C@@H](CC(C)C)C(=O)N[C@@H](CCCN=C(N)N)C(=O)O [KFKKLFKKLSPVIGKEFKRIVERIKRFLR]
MIC [1]: 10 µM (≈ 36.3 µg/mL) | MIC [2]: 15 µM (≈ 54.5 µg/mL) | MIC [3]: 5 µM (≈ 18.2 µg/mL) | MIC [4]: 5 µM (≈ 18.2 µg/mL) | MIC [5]: 10 µM (≈ 36.3 µg/mL) | MIC [6]: 10 µM (≈ 36.3 µg/mL) | MIC [7]: 2.5 µM (≈ 9.08 µg/mL) | MIC [8]: 20 µM (≈ 72.7 µg/mL) | MIC [9]: 25 µM (≈ 90.8 µg/mL) | MIC [10]: 20 µM (≈ 72.7 µg/mL) | MIC [11]: 10 µM (≈ 36.3 µg/mL) | MIC [12]: 10 µM (≈ 36.3 µg/mL) | MIC [13]: 10 µM (≈ 36.3 µg/mL) | MIC [14]: 10 µM (≈ 36.3 µg/mL)

CC[C@H](C)[C@H](NC(=O)[C@H](CCCCN)NC(=O)[C@H](CO)NC(=O)[C@H](Cc1ccccc1)NC(=O)[C@H](CC(C)C)NC(=O)[C@H](CCCCN)NC(=O)[C@H](CCC(=O)O)NC(=O)[C@H](CC(C)C)NC(=O)[C@H](CCCN=C(N)N)NC(=O)[C@H](CCCCN)NC(=O)[C@H](CO)NC(=O)[C@@H](NC(=O)[C@H](CCCCN)NC(=O)[C@H](CCCCN)NC(=O)[C@H](C)N)C(C)C)C(=O)N[C@@H](CCC(N)=O)C(=O)N[C@@H](CC(N)=O)C(=O)N[C@@H](CC(=O)O)C(=O)N[C@@H](CCCCN)C(N)=O [AKKVSKRLEKLFSKIQNDK]
MIC [15]: ≥ 50 µM | MIC [16]: ≥ 50 µM | MIC (Bacillus subtilis): 3.13 µM (≈ 7.07 µg/mL) | MIC (Botrytis cinerea): ≥ 50 µM | MIC [17]: 25 µM (≈ 56.5 µg/mL) | MIC [18]: 6.25 µM (≈ 14.1 µg/mL) | MIC (Escherichia coli): 6.25 µM (≈ 14.1 µg/mL) | MIC (Fusarium verticillioides): ≥ 50 µM | MIC [19]: 12.5 µM (≈ 28.2 µg/mL) | MIC (Proteus vulgaris): 12.5 µM (≈ 28.2 µg/mL) | MIC (Pseudomonas aeruginosa): 12.5 µM (≈ 28.2 µg/mL) | MIC (Saccharomyces cerevisiae): 25 µM (≈ 56.5 µg/mL) | MIC (Salmonella typhimurium): 12.5 µM (≈ 28.2 µg/mL) | MIC (Staphylococcus aureus): > 12.5 µM | MIC [20]: 12.5 µM (≈ 28.2 µg/mL) | MIC (Trichosporon beigelii): 12.5 µM (≈ 28.2 µg/mL)

CC[C@H](C)[C@@H]1NC(=O)CNC(=O)[C@H](CCCN=C(N)N)NC(=O)[C@H](Cc2ccc(O)cc2)NC(=O)[C@@H](NC(=O)[C@@H](NC(=O)[C@H](CCCN=C(N)N)NC(=O)[C@H](Cc2ccccc2)NC(=O)[C@H](C)NC(=O)[C@H](Cc2c[nH]c3ccccc23)NC(=O)[C@@H](N)CCCCN)C(C)C)CSSC[C@@H](C(=O)N[C@@H](Cc2ccc(O)cc2)C(=O)N[C@@H](CCCN=C(N)N)C(=O)N[C@@H](CCCN=C(N)N)C(=O)N[C@@H](CO)C(=O)N[C@@H](CCCN=C(N)N)C(=O)O)NC1=O [KWAFRVCYRGICYRRSR]
MIC [1]: > 7.21 µM | MIC (Acinetobacter baumannii): 7.21 µM (≈ 16 µg/mL) | MIC [21]: 0.225 µM (≈ 0.5 µg/mL) | MIC [22]: 7.21 µM (≈ 16 µg/mL) | MIC [23]: 1.8 µM (≈ 4 µg/mL) | MIC [5]: 1.8 µM (≈ 4 µg/mL) | MIC [7]: 7.21 µM (≈ 16 µg/mL) | MIC [24]: 7.21 µM (≈ 16 µg/mL) | MIC [25]: 7.21 µM (≈ 16 µg/mL) | MIC (Klebsiella pneumoniae): > 7.21 µM | MIC [8]: > 7.21 µM | MIC (Pseudomonas aeruginosa): > 7.21 µM | MIC [12]: > 7.21 µM

CC[C@H](C)[C@H](NC(=O)[C@@H]1CSSC[C@H](NC(=O)[C@H](CCCCN)NC(=O)CN)C(=O)N[C@@H](CCC(=O)O)C(=O)N[C@@H](Cc2c[nH]c3ccccc23)C(=O)N[C@@H](CCC(N)=O)C(=O)NCC(=O)NCC(=O)N[C@@H](CCC(N)=O)C(=O)N[C@@H](CC(C)C)C(=O)N[C@@H](CC(N)=O)C(=O)N1)C(=O)N[C@@H](C)C(=O)N[C@H](C(=O)O)[C@@H](C)O [GKCEWQGGQLNCIAT]
MIC [26]: > 62.2 µM | MIC (Candida krusei CBS 573): ≥ 62.2 µM | MIC [27]: ≥ 62.2 µM | MIC [28]: ≥ 62.2 µM

CC[C@H](C)[C@H](N)C(=O)N[C@@H](CCCCN)C(=O)N[C@@H](Cc1ccc(O)cc1)C(=O)N[C@@H](CC(C)C)C(=O)N[C@@H](CC(C)C)C(=O)N[C@H](C(=O)N[C@@H](CCCCN)C(=O)N[C@@H](CC(C)C)C(=O)N[C@@H](CCC(N)=O)C(=O)NCC(=O)N[C@@H](C)C(=O)N[C@@H](CO)C(=O)N[C@@H](CCC(N)=O)C(=O)N[C@@H](CCCCN)C(=O)N[C@H](C(=O)N[C@H](C(=O)N[C@H](C(=O)N[C@@H](CC(C)C)C(=O)N[C@@H](CCSC)C(=O)N[C@@H](CC(C)C)C(=O)N[C@@H](CCCN=C(N)N)C(=O)N[C@@H](CCCN=C(N)N)C(=O)N[C@@H](CC(N)=O)C(=O)O)[C@@H](C)O)[C@@H](C)CC)[C@@H](C)O)C(C)C [IKYLLVKLQGASQKTITLMLRRN]
MIC [29]: ≥ 50.6 µM | MIC [30]: 25.3 µM (≈ 68 µg/mL) | MIC [5]: 12.6 µM (≈ 34 µg/mL) | MIC [24]: 50.6 µM (≈ 136 µg/mL) | MIC [31]: 50.6 µM (≈ 136 µg/mL) | MIC [10]: 3.16 µM (≈ 8.5 µg/mL) | MIC [32]: 6.32 µM (≈ 17 µg/mL) | MIC [33]: 3.16 µM (≈ 8.5 µg/mL)
